Common to all, as to format: biochemical
The target of test [1] is T1, CsCuAO3 (Camellia sinensis, UniProt A0A4S4DQ49).
T1 construct: gene TEA_013658; recombinant GST fusion, pGEX-4T-1, purified; peroxisomal; copper/TPQ enzyme, CuAOs stated as homodimer in general; gene from Tea Plant Information Archive, locus id not given
T1 sequence (A0A4S4DQ49 1-679): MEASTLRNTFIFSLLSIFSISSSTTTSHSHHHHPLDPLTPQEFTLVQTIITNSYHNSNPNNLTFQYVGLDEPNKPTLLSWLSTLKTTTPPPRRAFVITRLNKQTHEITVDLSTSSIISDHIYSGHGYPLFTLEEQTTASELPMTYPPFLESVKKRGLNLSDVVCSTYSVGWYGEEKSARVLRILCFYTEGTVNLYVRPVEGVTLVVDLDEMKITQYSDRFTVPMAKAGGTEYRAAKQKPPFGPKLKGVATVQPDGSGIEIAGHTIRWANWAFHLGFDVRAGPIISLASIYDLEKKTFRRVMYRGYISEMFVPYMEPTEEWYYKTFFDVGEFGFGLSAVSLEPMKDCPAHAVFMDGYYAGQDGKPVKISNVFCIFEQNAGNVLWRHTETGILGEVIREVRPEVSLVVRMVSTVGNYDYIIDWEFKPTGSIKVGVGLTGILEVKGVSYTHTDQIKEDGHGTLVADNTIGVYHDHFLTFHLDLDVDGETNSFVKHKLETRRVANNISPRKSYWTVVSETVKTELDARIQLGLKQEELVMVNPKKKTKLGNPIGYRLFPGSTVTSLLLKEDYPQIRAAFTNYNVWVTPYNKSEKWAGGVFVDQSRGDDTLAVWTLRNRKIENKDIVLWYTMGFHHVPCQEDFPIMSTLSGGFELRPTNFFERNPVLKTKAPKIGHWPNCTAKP
The experiment in a line: peroxidase-coupled 4-aminoantipyrine/N,N-dimethylaniline assay at […] nm; Lineweaver-Burk. Particulars: 0.1 M potassium phosphate pH 6.5; O2 co-substrate; unit "Mm" [sic] (substrate range 0.1-100 mM).

Test [2] concerns the target T2, CsCuAO1 (Camellia sinensis, UniProt A0A4S4D8A3).
T2 construct: gene TEA_026770; recombinant GST fusion, pGEX-4T-1, purified; peroxisomal; copper/TPQ enzyme, CuAOs stated as homodimer in general; gene from Tea Plant Information Archive, locus id not given
T2 sequence (A0A4S4D8A3 1-662): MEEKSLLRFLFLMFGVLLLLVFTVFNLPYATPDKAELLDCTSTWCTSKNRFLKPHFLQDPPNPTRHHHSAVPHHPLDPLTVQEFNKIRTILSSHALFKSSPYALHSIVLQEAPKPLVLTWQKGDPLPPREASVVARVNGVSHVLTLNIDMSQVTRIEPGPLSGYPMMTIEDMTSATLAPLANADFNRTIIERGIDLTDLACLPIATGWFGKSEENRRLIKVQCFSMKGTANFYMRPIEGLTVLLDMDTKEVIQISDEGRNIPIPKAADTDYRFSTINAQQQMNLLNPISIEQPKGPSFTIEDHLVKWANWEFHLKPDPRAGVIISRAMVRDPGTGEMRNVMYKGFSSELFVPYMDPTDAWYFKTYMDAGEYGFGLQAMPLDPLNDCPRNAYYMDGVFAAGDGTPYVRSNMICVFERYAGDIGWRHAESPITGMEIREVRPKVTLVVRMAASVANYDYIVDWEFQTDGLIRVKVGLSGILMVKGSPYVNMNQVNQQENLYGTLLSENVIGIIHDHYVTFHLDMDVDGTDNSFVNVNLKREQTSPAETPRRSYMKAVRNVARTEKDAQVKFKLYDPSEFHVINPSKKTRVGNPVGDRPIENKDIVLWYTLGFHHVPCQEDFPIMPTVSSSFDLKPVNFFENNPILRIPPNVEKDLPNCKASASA
The description is as above. To be noted: 0.1 M potassium phosphate pH 6.5; O2 co-substrate; unit "Mm" [sic] (substrate range 0.1-100 mM).

Test [3] addresses T3, CsAMADH1 (Camellia sinensis, UniProt I7F760).
T3 construct: recombinant GST fusion, pGEX-4T-1, purified; plastid-localized; gene from Tea Plant Information Archive, locus id not given
T3 sequence (I7F760 1-505): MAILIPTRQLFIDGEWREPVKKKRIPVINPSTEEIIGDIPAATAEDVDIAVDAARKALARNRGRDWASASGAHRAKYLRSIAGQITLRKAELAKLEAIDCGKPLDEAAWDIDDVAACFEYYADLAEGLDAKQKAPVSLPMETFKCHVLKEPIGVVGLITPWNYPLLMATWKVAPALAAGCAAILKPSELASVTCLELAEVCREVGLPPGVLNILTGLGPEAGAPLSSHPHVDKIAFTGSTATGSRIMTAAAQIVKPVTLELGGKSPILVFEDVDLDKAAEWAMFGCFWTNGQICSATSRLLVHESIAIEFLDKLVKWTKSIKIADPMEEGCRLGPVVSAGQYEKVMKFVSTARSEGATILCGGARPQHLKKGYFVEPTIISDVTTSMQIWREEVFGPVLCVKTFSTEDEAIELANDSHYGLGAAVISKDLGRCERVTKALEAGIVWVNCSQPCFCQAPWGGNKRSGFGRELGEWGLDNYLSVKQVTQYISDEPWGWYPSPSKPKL
Put plainly: NADH formation at […] nm; Lineweaver-Burk. To be noted: 0.1 M potassium phosphate pH 8.0; 0.001 M NAD+ as co-substrate; unit "Mm" [sic] (substrate range 0.1-100 mM).

Molecules are shown by their SMILES.

On to `NCCCCN` [putrescine], for which the Km is 15.8 Mm in test [1] and 21.9 Mm in test [2].

With `NCCCC=O` [4-ABAL], the Km in test [3] came to 25.7 Mm.

Values taken from PMC9100525, “CsCuAOs and CsAMADH1 Are Required for Putrescine-Derived γ-Aminobutyric Acid Accumulation in Tea” (Foods, 2022).
